From PubChem BioAssay (NCI)
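Test compounds were applied to cells in 96-well plates for 48 hours at 5 doses. TGI marks complete inhibition of growth.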

Key:
Assay in all cases: inhibition of tumour cell growth, NCI panel, 48 h
KM12 colon = system: KM12 colon
HOP-62 NSCLC = system: HOP-62 NSCLC
HS 578T breast = system: HS 578T breast
OVCAR-4 ovarian = system: OVCAR-4 ovarian
TK-10 renal = system: TK-10 renal
SK-MEL-2 melanoma = system: SK-MEL-2 melanoma
M14 melanoma = system: M14 melanoma
NCI-H226 lung = system: NCI-H226 lung
SK-MEL-28 melanoma = system: SK-MEL-28 melanoma
IGROV1 ovarian = system: IGROV1 ovarian

| Structure (SMILES) | TGI (KM12 colon) [µM] | TGI (HOP-62 NSCLC) [µM] | TGI (HS 578T breast) [µM] | TGI (OVCAR-4 ovarian) [µM] | TGI (TK-10 renal) [µM] | TGI (SK-MEL-2 melanoma) [µM] | TGI (M14 melanoma) [µM] | TGI (NCI-H226 lung) [µM] | TGI (SK-MEL-28 melanoma) [µM] | TGI (IGROV1 ovarian) [µM] |
| --- | --- | --- | --- | --- | --- | --- | --- | --- | --- | --- |
| O=C(CCCCCCCCC(=O)N1C(=O)CC(=O)N(c2ccccc2)C1=S)N1C(=O)CC(=O)N(c2ccccc2)C1=S | > 100 | > 100 | > 100 | > 100 | > 100 | > 100 | > 100 |  |  |  |
| CCO[C@@]1(COCc2ccccc2)OC(=O)C[C@@H]1N1C(=O)OC[C@@H]1c1ccccc1 | > 100 | 73 |  | > 100 | > 100 | > 100 | > 100 | > 100 | > 100 | > 100 |
| COP(=O)(OC)C(NC(=O)C(F)(F)F)(c1ccccc1)C(F)(F)F (centres undefined) | > 100 | > 100 |  | > 100 | > 100 | > 100 | > 100 | > 100 | > 100 | > 100 |
| CC1(C)O[C@@H](CCl)C[C@H](C#N)O1 | > 100 | > 100 |  | > 100 | > 100 | > 100 | > 100 | > 100 | > 100 | > 100 |
| CCCC(C)n1c(C)nc2c1C(=O)c1ccccc1C2=O (centres undefined) | > 100 | > 100 |  | > 100 | > 100 | 47.1 | 93.7 | > 100 | > 100 | > 100 |
| O=C1c2ccccc2C(=O)c2sc(Nc3ccccc3C(F)(F)F)nc21 | 27.4 | 28.2 | 48.2 |  | 35.7 | 25.2 | 50.7 |  | 30.3 | 34.5 |
| CCN(CC)C(=S)Nc1ccc(-c2cc3ccc(O)cc3oc2=O)cc1 | > 100 |  | 71.6 |  | > 100 | 49.3 | > 100 | 99.5 | > 100 | > 100 |
| CC(C)CCCC(C)[C@H]1CC[C@H]2[C@@H]3CC[C@H]4C[C@@H](CCC=C(c5cc(Cl)c(O)c(C(=O)OC(C)C)c5)c5cc(Cl)c(O)c(C(=O)OC(C)C)c5)CC[C@]4(C)[C@H]3CC[C@]12C (some centres undefined) | > 50 | > 50 | > 50 | > 50 |  | > 50 | > 50 |  | > 50 | > 50 |
| CC1(C)C(CCO)CC1n1cc(I)c(=O)[nH]c1=O (centres undefined) | > 100 | > 100 | > 100 | > 100 | > 100 | > 100 | > 100 | > 100 | > 100 |  |
| COC1CC(OC2C(C)OC(OC3C(C)OC(OC4C(O)CC(O[C@H]5CC[C@@]6(C)C(=CC[C@]7(O)[C@@H]6C[C@@H](OC(C)=O)[C@@]6(C)[C@]7(O)CC[C@@]6(O)C(C)=O)C5)OC4C)CC3OC)CC2OC)OC(C)C1O (some centres undefined) | > 12.5 | > 12.5 | > 12.5 | > 12.5 | > 12.5 | > 12.5 | > 12.5 | > 12.5 |  | > 12.5 |
| C=C1C(=O)O[C@H]2[C@H]3O[C@@H](C[C@@H]12)[C@@]1(C)CC[C@H](O1)[C@H](C)CCC[C@H]3C | 4.05 | 16.3 | 12.4 | 3.4 | 2.98 | 4.62 |  | 3.87 | 3.1 | 2.74 |
| O=C(CCC(=O)CC(O)(C(F)(F)F)C(F)(F)F)CC(O)(C(F)(F)F)C(F)(F)F | > 100 | > 100 | > 100 | > 100 | > 100 |  | > 100 | 69.5 | > 100 | > 100 |
| COc1cc(C2c3cc4c(cc3OC(Nc3ccccc3)C2C)OCO4)cc(OC)c1O (centres undefined) | 38.7 |  |  | 48.2 | 20.2 | 8.59 | 60.7 | 39.8 | 28.4 | 48 |
| CCCCCCCCCCCCc1ccc(S(=O)(=O)O)cc1.[Zn+2] | > 100 | > 100 | > 100 | > 100 | > 100 |  | > 100 | > 100 | > 100 | 77.2 |
| O=C1C=C2SC3C[C@@]24CC1[N+]1=c2c4c(c(O)c4c2=C(C=N4)CC1)N3 | 4.74 | 32.6 |  | 3.13 |  | 3.35 |  | 4.76 | 4.09 | 6.48 |
| COc1ccc(NC(=O)CC(=O)n2nc(C)c(N=Nc3cccc(C)c3)c2C)cc1 | > 100 | > 100 | > 100 | > 100 | > 100 | > 100 | > 100 | > 100 | > 100 |  |
| O=S(OC12CC3CC(CC(C3)C1)C2)c1cc(Cl)cc(Cl)c1OCc1ccccc1 (centres undefined) | > 100 | > 100 |  | > 100 | > 100 | > 100 | > 100 |  | > 100 |  |
| CC12CC3OC(=O)C1COC14OC5(C2C1=O)C(O)(CCC1C4CC2OC24CC=CC(=O)C14C)C(=O)OC35C (centres undefined) | 36.5 | 39.4 | > 100 | > 100 | 30.8 | 28.1 | 44 |  | 24.7 | 42.8 |
| CCOC(=O)c1cc(I)c(-c2cc(C)no2)n1C | 49.3 |  |  | 75 | > 100 | > 100 | > 100 | > 100 | > 100 |  |
| NNc1nncc2[nH]cnc12 | > 100 | > 100 | > 100 |  | > 100 | > 100 | > 100 | > 100 | > 100 | > 100 |
| O=C1Nc2ccccc2Cn2c1cc1oc(-c3ccccc3)cc12 | > 100 | 44.8 | 44.3 | > 100 | > 100 | > 100 |  |  | > 100 | > 100 |
| COC12CCCN1c1ccn(Cc3ccccc3)c(=O)c1C2=O (centres undefined) | > 100 |  | > 100 | > 100 | > 100 | > 100 | > 100 | > 100 | > 100 | > 100 |
| O=C1c2ccccc2C(=O)c2c(O)c(NCCCNCCO)cc(O)c21 | 21 | 15.4 |  | 36.4 | 22.1 | 33 | 36.6 | 22 | 30.4 | 28.8 |
